Reference: patent US11040027B2, “Protein kinase inhibitors for promoting liver regeneration or reducing or preventing hepatocyte death” (HEPAREGENIX GMBH, priority 2017, dated 2021)

Legend:
C57BL/6N female mice = experiment: In vivo survival study after Jo2 antibody injection; details: 30 mg/kg oral gavage 1 h before i.p. 0.8 μg/g Jo2 antibody; versus vehicle only; 24 h; FIG. 1
Experimental: C57BL/6N female mice, age 6-9 weeks, purchased from Charles River Laboratories, Research Models and Services, Germany GmbH (Sulzfeld), were housed in accordance with the institutional guidelines of the University of TObingen, Germany. All animal experiments were approved by the German legal authorities.
Three experiments with n=3, n=4 and n=6 animals per group were performed. At time point t=−1 h), mice were dosed by oral gavage with either 30 mg/kg of compound, mixed in 2% hydroxymethylcellulose, pH 4.0) or vehicle only. One hour later (t=0 h), all animals were intraperitoneally (i.p.) injected with 0.8 μg/g mouse weight of Jo2 antibody (BD Pharmingen, San Diego, Calif.) diluted in 0.9% NaCl.
Mice were continuously monitored and survival was monitored all 15 min. After 24 h, all surviving animals were sacrificed.

BRaf = BRaf (Homo sapiens, UniProt P15056); experiment: KINOMEscan competition binding assay, selectivity BRaf versus MKK4; details: Test conc. 0.1 μM; ratio of percent of control; N/E* per footnote
BRaf, sequence (P15056 whole entry): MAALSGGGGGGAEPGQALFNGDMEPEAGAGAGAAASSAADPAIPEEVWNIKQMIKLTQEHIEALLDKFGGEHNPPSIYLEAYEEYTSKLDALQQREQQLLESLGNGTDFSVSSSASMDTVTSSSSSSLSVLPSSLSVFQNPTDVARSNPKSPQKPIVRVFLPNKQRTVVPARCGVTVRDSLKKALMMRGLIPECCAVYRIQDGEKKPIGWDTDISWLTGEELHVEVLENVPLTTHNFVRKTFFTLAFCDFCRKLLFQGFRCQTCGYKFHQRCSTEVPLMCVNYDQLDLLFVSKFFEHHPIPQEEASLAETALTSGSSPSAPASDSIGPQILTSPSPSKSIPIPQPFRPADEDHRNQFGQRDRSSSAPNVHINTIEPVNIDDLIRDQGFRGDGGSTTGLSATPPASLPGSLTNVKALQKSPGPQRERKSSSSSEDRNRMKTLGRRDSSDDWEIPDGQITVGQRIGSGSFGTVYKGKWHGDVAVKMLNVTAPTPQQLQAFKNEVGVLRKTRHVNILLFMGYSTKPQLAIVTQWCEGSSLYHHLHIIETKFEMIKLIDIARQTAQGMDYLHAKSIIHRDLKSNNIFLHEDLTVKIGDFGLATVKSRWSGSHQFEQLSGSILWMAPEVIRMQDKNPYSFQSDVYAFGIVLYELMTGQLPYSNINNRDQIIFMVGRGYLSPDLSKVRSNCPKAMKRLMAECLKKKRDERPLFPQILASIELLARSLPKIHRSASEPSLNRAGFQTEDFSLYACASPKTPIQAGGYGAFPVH

MKK7 = biological target: T1, MKK7 (Homo sapiens, UniProt O14733); experiment: KINOMEscan competition binding assay, selectivity MKK7 versus MKK4; details: Test conc. 0.1 μM; ratio of percent of control; N/E* per footnote
T1 sequence (O14733 1-419): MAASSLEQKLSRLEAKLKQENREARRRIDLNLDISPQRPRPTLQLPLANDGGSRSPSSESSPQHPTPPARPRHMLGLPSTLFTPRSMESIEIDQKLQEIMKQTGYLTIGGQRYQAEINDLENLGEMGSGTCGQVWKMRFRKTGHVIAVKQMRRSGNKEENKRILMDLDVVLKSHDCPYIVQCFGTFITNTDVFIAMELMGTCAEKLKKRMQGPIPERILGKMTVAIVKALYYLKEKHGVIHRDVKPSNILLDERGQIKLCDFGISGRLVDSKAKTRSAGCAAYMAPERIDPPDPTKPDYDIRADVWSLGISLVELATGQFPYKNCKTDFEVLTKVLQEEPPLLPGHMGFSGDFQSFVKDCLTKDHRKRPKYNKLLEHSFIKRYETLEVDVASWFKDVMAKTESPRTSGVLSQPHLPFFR

MKK4 active = biological target: T2, MKK4 active (Homo sapiens, UniProt P45985); experiment: Radiometric protein kinase assay, MKK4 active; assay type: biochemical; details: substrate JNK1 KRKR, ATP 0.2 μM, read-out: MKK4 (potency derived from IC50-values)
T2 construct: purchased ProQinase 0948-0000-1
T2 sequence (P45985 1-399): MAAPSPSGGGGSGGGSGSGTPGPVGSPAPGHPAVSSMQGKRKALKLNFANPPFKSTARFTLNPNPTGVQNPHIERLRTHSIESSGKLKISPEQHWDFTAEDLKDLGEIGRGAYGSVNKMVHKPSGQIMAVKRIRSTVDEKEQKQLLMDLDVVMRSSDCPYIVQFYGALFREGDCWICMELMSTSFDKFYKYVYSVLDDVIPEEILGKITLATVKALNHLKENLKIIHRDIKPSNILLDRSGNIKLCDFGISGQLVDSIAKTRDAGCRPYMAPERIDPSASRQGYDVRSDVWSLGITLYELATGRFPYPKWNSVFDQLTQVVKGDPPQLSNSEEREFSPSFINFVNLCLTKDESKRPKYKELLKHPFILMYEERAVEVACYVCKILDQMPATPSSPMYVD
Experimental: (§1) A radiometric protein kinase assay was used for measuring the kinase activity of the respective protein kinases. All kinase assays were performed in 96-well polypropylene plates. After the reactions were stopped, the assay mixtures were transferred to 96-well MSFC filter-plates (Millipore). The reaction mix was passed through the filter membrane by aspiration, the membrane was washed 3 times with 150 mM H3PO4, once with ethanol, dried and liquid scintillation cocktail was added. Radioactivity was determined by counting of the samples in a Microbeta multiwell scintillation counter (Wallac).
(§2) b) Single Kinases • 20 μl standard assay buffer • 5 μl compound in 10% DMSO • 20 μl enzyme-substrate mix • 10 μl of substrate solution
(§3) The reaction cocktails were incubated at 30° C. for 30 minutes.

JNK1 = JNK1 (Homo sapiens, UniProt P45983); experiment: KINOMEscan competition binding assay, selectivity JNK1 versus MKK4; details: Test conc 0.1 μM; ratio of percent of control; N/E* = PoC for JNK1 = 100
JNK1, sequence (P45983 1-384 isoform P45983-2): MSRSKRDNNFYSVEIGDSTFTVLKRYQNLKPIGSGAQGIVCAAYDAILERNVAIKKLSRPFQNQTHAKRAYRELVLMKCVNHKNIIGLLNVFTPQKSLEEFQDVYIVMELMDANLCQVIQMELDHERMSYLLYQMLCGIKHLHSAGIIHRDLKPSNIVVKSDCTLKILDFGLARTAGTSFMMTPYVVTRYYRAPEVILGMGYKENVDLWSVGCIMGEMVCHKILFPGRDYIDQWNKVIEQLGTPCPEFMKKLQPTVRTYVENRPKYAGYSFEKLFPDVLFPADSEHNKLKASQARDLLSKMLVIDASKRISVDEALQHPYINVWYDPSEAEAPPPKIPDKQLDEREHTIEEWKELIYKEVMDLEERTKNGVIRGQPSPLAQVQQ
Experimental: (§4) The assay was performed by combining three components: DNA-tagged kinase; immobilized ligand; and a test compound. The ability of the test compound to compete with the immobilized ligand was measured via quantitative PCR of the DNA tag.
(§5) For investigation of the affinity to MKK4, MKK7 and JNK1, the kinases were produced in HEK-293 cells and subsequently tagged with DNA for qPCR detection. […] The liganded beads were blocked with excess biotin and washed with blocking buffer (SEABLOCK™ (Pierce), 1% BSA, 0.05% TWEEN®20, 1 mM DTT) to remove unbound ligand and to reduce nonspecific binding. […] All reactions were performed in polystyrene 96-well plates in a final volume of 0.135 mL. […] The kinase concentration in the eluates was measured by qPCR.
(§6) The test compounds were provided as 10 mM stock solutions. The test solutions at indicated final concentrations were prepared at DiscoverX.

MEKK2 = biological target: T3, MEKK2 (Homo sapiens, UniProt Q9Y2U5); experiment: Radiometric protein kinase assay, MEKK2; assay type: biochemical; details: substrate Casein, ATP 0.2 μM; read-out: MEKK2 (potency derived from IC50-values)
T3 construct: purchased ProQinase 0583-0000-1
T3 sequence (Q9Y2U5 1-619): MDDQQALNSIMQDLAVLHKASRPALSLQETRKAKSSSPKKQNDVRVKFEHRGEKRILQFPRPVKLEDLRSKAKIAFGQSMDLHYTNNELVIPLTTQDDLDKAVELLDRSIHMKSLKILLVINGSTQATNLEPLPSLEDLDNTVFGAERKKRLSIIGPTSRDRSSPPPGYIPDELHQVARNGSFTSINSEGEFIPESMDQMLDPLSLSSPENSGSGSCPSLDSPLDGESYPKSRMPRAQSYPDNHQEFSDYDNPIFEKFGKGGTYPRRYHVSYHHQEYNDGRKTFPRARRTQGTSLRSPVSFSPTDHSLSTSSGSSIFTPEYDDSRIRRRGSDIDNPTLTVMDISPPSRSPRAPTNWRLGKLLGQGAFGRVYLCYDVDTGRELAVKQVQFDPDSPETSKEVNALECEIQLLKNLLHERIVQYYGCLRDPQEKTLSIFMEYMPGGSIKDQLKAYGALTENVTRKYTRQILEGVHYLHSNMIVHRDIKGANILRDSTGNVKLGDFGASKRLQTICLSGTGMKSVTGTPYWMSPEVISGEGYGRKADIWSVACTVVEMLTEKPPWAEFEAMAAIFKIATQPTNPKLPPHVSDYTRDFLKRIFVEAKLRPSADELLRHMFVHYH
Experimental: as §1, §2, §3

MKK4 = biological target: T4, MKK4 (Homo sapiens, UniProt P45985); experiment: KINOMEscan competition binding assay, MKK4; details: read-out: Potency MKK4 (derived from % of control values, PoC)
T4 sequence (P45985 84-399): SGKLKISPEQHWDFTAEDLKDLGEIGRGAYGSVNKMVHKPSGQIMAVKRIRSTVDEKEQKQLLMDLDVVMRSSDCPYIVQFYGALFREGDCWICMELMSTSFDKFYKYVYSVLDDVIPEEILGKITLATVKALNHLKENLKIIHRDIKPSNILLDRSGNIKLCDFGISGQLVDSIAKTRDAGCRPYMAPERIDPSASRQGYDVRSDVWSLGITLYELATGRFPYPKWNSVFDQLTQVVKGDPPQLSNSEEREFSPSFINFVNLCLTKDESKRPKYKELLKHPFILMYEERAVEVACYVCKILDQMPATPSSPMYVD
Experimental: as §4, §5, §6

Row | Selectivity BRaf/MKK4 (BRaf) | Selectivity MKK7/MKK4 (MKK7) | IC50 (MKK4 active) | Selectivity JNK1/MKK4 (JNK1) | IC50 (MEKK2) | remaining binding at 0.1 µM (MKK4) | SMILES | survival rate (C57BL/6N female mice)
1 | – | – | – | – | – | – | CCCS(=O)(=O)Nc1ccc(F)c(C(=O)c2c[nH]c3ncc(-c4ccc(Cl)cc4)cc23)c1F [Example 2, Propane-1-sulfonic acid {3-[5-(4-chloro-phenyl)-1H-pyrrolo[2,3-b]pyridine-3-carbonyl]-2,4-difluoro-phenyl}-amide] | significantly higher
2 | 7.0 | N/E* (PoC for JNK1 = 100) | < 0.5 µM | N/E* (PoC for JNK1 = 100) | > 10 µM | 10 to 30% | CCCCS(=O)(=O)Nc1cccc(C(=O)c2c[nH]c3ncc(-c4ccc(Cl)cc4)cc23)c1F [Example 50] | –
3 | 18.8 | 19.6 | > 10 µM | N/E* (PoC for JNK1 = 100) | > 10 µM | < 10% | CS(=O)(=O)Nc1cccc(C(=O)c2c[nH]c3ncc(-c4ccc5c(c4)OCCO5)cc23)c1F [Example 36, N-(3-(5-(2,3-Dihydrobenzo[b][1,4]dioxin-6-yl)-1H-pyrrolo[2,3-b]pyridine-3-carbonyl)-2-fluorophenyl)methanesulfonamide] | –
